According to ChEMBL document CHEMBL1201862, “PubChem BioAssay data set” (2004):
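Growth conditions: 96-well plates. Treatment: test compound, 48 hours, 5 concentrations. Analysis: linear interpolation between bracketing concentrations; unreached endpoints set to highest concentration. The concentration for 50% growth inhibition is given as GI50.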 Active and inactive are the calls of the source. No stated cut-off is given here; in the data, active = GI50 up to about 1.1 µM and inactive = higher.

Key:
Assay in all cases: DTP human tumour cell line panel, 48 h
786-0 = test system: 786-0
A498 = test system: A498
A549 = test system: A549
ACHN = test system: ACHN
BT-549 = test system: BT-549
CAKI-1 = test system: CAKI-1
CCRF-CEM = test system: CCRF-CEM
COLO 205 = test system: COLO 205
DLD-1 = test system: DLD-1
DMS-114 = test system: DMS-114
DMS-273 = test system: DMS-273
DU-145 = test system: DU-145
EKVX = test system: EKVX
HCC 2998 = test system: HCC 2998
HCT-116 = test system: HCT-116
HCT-15 = test system: HCT-15
HL-60 = test system: HL-60
HOP-18 = test system: HOP-18
HOP-62 = test system: HOP-62
HOP-92 = test system: HOP-92
HT-29 = test system: HT-29
Hs-578T = test system: Hs-578T
IGROV-1 = test system: IGROV-1
K562 = test system: K562
KM-20L2 = test system: KM-20L2
KM12 = test system: KM12
LOX IMVI = test system: LOX IMVI
LXFL 529 = test system: LXFL 529
M14 = test system: M14
M19-MEL = test system: M19-MEL
MCF7 = test system: MCF7
MDA-MB-231 = test system: MDA-MB-231
MDA-MB-435 = test system: MDA-MB-435
MDA-N = test system: MDA-N
MOLT-4 = test system: MOLT-4
Malme-3M = test system: Malme-3M
NCI-H226 = test system: NCI-H226
NCI-H23 = test system: NCI-H23
NCI-H460 = test system: NCI-H460
NCI-H522 = test system: NCI-H522
NCI/ADR-RES = test system: NCI/ADR-RES
OVCAR-3 = test system: OVCAR-3
OVCAR-4 = test system: OVCAR-4
OVCAR-5 = test system: OVCAR-5
OVCAR-8 = test system: OVCAR-8
PC-3 = test system: PC-3
RPMI-8226 = test system: RPMI-8226
RXF 393 = test system: RXF 393
RXF 631 = test system: RXF 631
SF-268 = test system: SF-268
SF-295 = test system: SF-295
SF-539 = test system: SF-539
SK-MEL-28 = test system: SK-MEL-28
SK-MEL-2 = test system: SK-MEL-2
SK-MEL-5 = test system: SK-MEL-5
SK-OV-3 = test system: SK-OV-3
SN12C = test system: SN12C
SNB-19 = test system: SNB-19
SNB-75 = test system: SNB-75
SNB-78 = test system: SNB-78
SR = test system: SR
SW-620 = test system: SW-620
T47D = test system: T47D
TK-10 = test system: TK-10
U-251 = test system: U-251
UACC-257 = test system: UACC-257
UACC-62 = test system: UACC-62
UO-31 = test system: UO-31
XF498 = test system: XF498

With `Nc1ncnc2c1ncn2C1C=C(CO)C(O)C1O` (centres undefined) as the molecule, how does the GI50 (786-0) read?
Its GI50 is 4.17 µM (inactive).

And the GI50 (A498)?
Its GI50 is 15.9 µM (inactive).

What about the GI50 (A549) of the same molecule?
The GI50 was 14.9 µM (inactive).

And the GI50 (ACHN)?
Its GI50 is 4.48 µM (inactive).

And the GI50 (BT-549)?
Its GI50 is 1.99 µM (inactive).

And the GI50 (CAKI-1)?
The GI50 was 13.1 µM (inactive).

And the GI50 (CCRF-CEM)?
The GI50 was 0.305 µM (active).

And the GI50 (COLO 205)?
Its GI50 is 3.32 µM (inactive).

And the GI50 (DLD-1)?
Its GI50 is 5.6 µM (inactive).

And the GI50 (DMS-114)?
The GI50 was 1.99 µM (inactive).

And the GI50 (DMS-273)?
The GI50 was 2.64 µM (inactive).

What about the GI50 (DU-145) of the same molecule?
The GI50 was 5.69 µM (inactive).

What about the GI50 (EKVX) of the same molecule?
The GI50 was 25.8 µM (inactive).

And the GI50 (HCC 2998)?
The GI50 was 4.72 µM (inactive).

And the GI50 (HCT-116)?
Its GI50 is 0.0509 µM (active).

What about the GI50 (HCT-15) of the same molecule?
Its GI50 is 0.468 µM.

And the GI50 (HL-60)?
The GI50 was 0.34 µM (active).

And the GI50 (HOP-18)?
Its GI50 is 24.3 µM (inactive).

What about the GI50 (HOP-62) of the same molecule?
The GI50 was 3.26 µM (inactive).

What about the GI50 (HOP-92) of the same molecule?
The GI50 was 7.55 µM (inactive).

And the GI50 (HT-29)?
The GI50 was 2.06 µM (inactive).

And the GI50 (Hs-578T)?
The GI50 was 83.6 µM (inactive).

And the GI50 (IGROV-1)?
Its GI50 is 7.74 µM (inactive).

What about the GI50 (K562) of the same molecule?
Its GI50 is 0.0452 µM (active).

What about the GI50 (KM-20L2) of the same molecule?
The GI50 was 14.7 µM (inactive).

And the GI50 (KM12)?
Its GI50 is 0.264 µM (active).

What about the GI50 (LOX IMVI) of the same molecule?
The GI50 was 3 µM (inactive).

What about the GI50 (LXFL 529) of the same molecule?
The GI50 was 16.7 µM (inactive).

And the GI50 (M14)?
Its GI50 is 9.57 µM (inactive).

And the GI50 (M19-MEL)?
The GI50 was 40.9 µM (inactive).

And the GI50 (MCF7)?
The GI50 was 0.197 µM (active).

What about the GI50 (MDA-MB-231) of the same molecule?
Its GI50 is 2.19 µM (inactive).

What about the GI50 (MDA-MB-435) of the same molecule?
The GI50 was 3.08 µM (inactive).

And the GI50 (MDA-N)?
Its GI50 is 3.37 µM (inactive).

What about the GI50 (MOLT-4) of the same molecule?
Its GI50 is 0.249 µM (active).

What about the GI50 (Malme-3M) of the same molecule?
The GI50 was 5.33 µM (inactive).

And the GI50 (NCI-H226)?
The GI50 was 22.4 µM (inactive).

What about the GI50 (NCI-H23) of the same molecule?
Its GI50 is 2.83 µM (inactive).

What about the GI50 (NCI-H460) of the same molecule?
Its GI50 is 0.637 µM (active).

What about the GI50 (NCI-H522) of the same molecule?
Its GI50 is 3.99 µM (inactive).

What about the GI50 (NCI/ADR-RES) of the same molecule?
The GI50 was 5.61 µM (inactive).

And the GI50 (OVCAR-3)?
The GI50 was 5.01 µM (inactive).

And the GI50 (OVCAR-4)?
Its GI50 is 6.24 µM (inactive).

And the GI50 (OVCAR-5)?
The GI50 was 7.5 µM (inactive).

And the GI50 (OVCAR-8)?
Its GI50 is 3.75 µM (inactive).

What about the GI50 (PC-3) of the same molecule?
The GI50 was 6.92 µM (inactive).

And the GI50 (RPMI-8226)?
Its GI50 is 0.256 µM (active).

What about the GI50 (RXF 393) of the same molecule?
Its GI50 is 9.59 µM (inactive).

And the GI50 (RXF 631)?
The GI50 was 12.6 µM (inactive).

What about the GI50 (SF-268) of the same molecule?
The GI50 was 10.1 µM (inactive).

And the GI50 (SF-295)?
The GI50 was 24.5 µM (inactive).

And the GI50 (SF-539)?
The GI50 was 4.26 µM (inactive).

What about the GI50 (SK-MEL-28) of the same molecule?
The GI50 was 1.23 µM (inactive).

What about the GI50 (SK-MEL-2) of the same molecule?
Its GI50 is 29.7 µM (inactive).

And the GI50 (SK-MEL-5)?
Its GI50 is 20.3 µM (inactive).

And the GI50 (SK-OV-3)?
The GI50 was 8.18 µM (inactive).

What about the GI50 (SN12C) of the same molecule?
The GI50 was 7.03 µM (inactive).

What about the GI50 (SNB-19) of the same molecule?
The GI50 was 16 µM (inactive).

What about the GI50 (SNB-75) of the same molecule?
The GI50 was 7.55 µM (inactive).

And the GI50 (SNB-78)?
Its GI50 is 30.9 µM (inactive).

What about the GI50 (SR) of the same molecule?
Its GI50 is 0.0254 µM (active).

What about the GI50 (SW-620) of the same molecule?
The GI50 was 2.06 µM (inactive).

And the GI50 (T47D)?
Its GI50 is 1.64 µM (inactive).

What about the GI50 (TK-10) of the same molecule?
Its GI50 is 6.64 µM (inactive).

What about the GI50 (U-251) of the same molecule?
The GI50 was 10.4 µM (inactive).

What about the GI50 (UACC-257) of the same molecule?
The GI50 was 1.35 µM (inactive).

What about the GI50 (UACC-62) of the same molecule?
The GI50 was 3.56 µM (inactive).

And the GI50 (UO-31)?
Its GI50 is 0.41 µM (active).

And the GI50 (XF498)?
Its GI50 is 37.2 µM (inactive).
